Experimental data reported in US3974281A, “5-Methyl-1-phenyl-2-(1H)-pyridone compositions and methods of use” (priority 1974, dated 1976).

Test system: rabbit eye (conjunctival sac)
Design: species or system albino rabbits of the New Zealand strain
Settings: in vivo
Description: six male albino rabbits of the New Zealand strain were incorporated in this study. A dosage of 0.1 ml. of AMR-69-62 (2% Aqueous Solution) was introduced into the conjunctival sac of the left eye of each rabbit; the right eye served as an untreated control. The six treated rabbit eyes were scored against the corresponding untreated control eyes according to the method of Draize (Draize, J.H., in Appraisal of the Safety of Chemicals in Foods, Drugs and Cosmetics, Assoc. of Food and Drug Officials of U.S., Austin, Tex., 1959) at 0.5 minutes, 30 minutes and 3.0 hours after administration of AMR-69.

## Cc1ccc(=O)n(-c2ccccc2)c1 [AMR-69, 5-methyl-1-phenyl-2-(1H)-pyridone]
  Draize evaluation of eye irritation: would not be considered as an irritant to the eye
  group mean Draize score at 0.5 minutes: 2.0
  group mean Draize score at 30 minutes: 0.0
  group mean Draize score at 3.0 hours: 0.0
